In PubChem BioAssay (NCI):
“And” between values parts separate entries of the source, which are not always exact repeats. Identical values can stand only once.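 96-well plates; 48 h exposure; 5 concentrations. Endpoints by linear interpolation between flanking doses. Not reached: highest tested concentration assigned. GI50: concentration for 50% inhibition of growth. Definition used: TGI = concentration required for complete inhibition of growth.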

Columns and labels:
Assay in all cases: NCI anticancer screen, dose series, 48 h
786-0 renal = tested on: 786-0 renal
A549 NSCLC = tested on: A549 NSCLC
DMS 273 small cell lung = tested on: DMS 273 small cell lung
LXFL 529 NSCLC = tested on: LXFL 529 NSCLC
MOLT-4 leukemia = tested on: MOLT-4 leukemia
SF-268 CNS = tested on: SF-268 CNS
SK-MEL-2 melanoma = tested on: SK-MEL-2 melanoma
KM20L2 colon = tested on: KM20L2 colon
DU-145 prostate = tested on: DU-145 prostate
NCI/ADR-RES ovarian = tested on: NCI/ADR-RES ovarian

CCOC(=O)C(Br)=C1OC(=O)c2ccccc2-c2ccccc21 (mixture of isomers)
TGI (786-0 renal): 32.7 µM
TGI (A549 NSCLC): > 100 µM
TGI (DMS 273 small cell lung): 29 µM
TGI (LXFL 529 NSCLC): 26.5 µM
TGI (MOLT-4 leukemia): 47.6 µM
TGI (SF-268 CNS): 88.3 µM
TGI (SK-MEL-2 melanoma): 37.4 µM

FC(F)(F)c1ccc2nc(NCc3ccccc3)c(-c3ccccc3)nc2c1
TGI (786-0 renal): 53.1 µM
TGI (A549 NSCLC): > 100 µM
TGI (DMS 273 small cell lung): > 100 µM
TGI (KM20L2 colon): > 100 µM
TGI (LXFL 529 NSCLC): > 100 µM
TGI (MOLT-4 leukemia): 72.5 µM
TGI (SF-268 CNS): > 100 µM
TGI (SK-MEL-2 melanoma): > 100 µM

C[N+](C)(C)CC(=O)N/N=C(/Cc1cc(=O)oc2cc(O)ccc12)C(=O)Nc1ccc(Cl)cc1
TGI (786-0 renal): > 100 µM
TGI (A549 NSCLC): > 100 µM
TGI (KM20L2 colon): > 100 µM
TGI (MOLT-4 leukemia): > 100 µM
TGI (SF-268 CNS): > 100 µM
TGI (SK-MEL-2 melanoma): > 100 µM

CCCCCCCCCCCC[N+]12CC[N+](CCN)(CC1)CC2
TGI (786-0 renal): > 100 µM
TGI (A549 NSCLC): > 100 µM
TGI (DMS 273 small cell lung): 31.9 µM
TGI (KM20L2 colon): > 100 µM
TGI (LXFL 529 NSCLC): > 100 µM
TGI (MOLT-4 leukemia): > 100 µM
TGI (SF-268 CNS): > 100 µM
TGI (SK-MEL-2 melanoma): > 100 µM

CC12c3ccccc3C(OC=O)(c3ccccc31)C1(C)c3ccccc3C2(OC=O)c2ccccc21
TGI (786-0 renal): > 100 µM
TGI (A549 NSCLC): > 100 µM
TGI (DMS 273 small cell lung): > 100 µM
TGI (KM20L2 colon): > 100 µM
TGI (LXFL 529 NSCLC): > 100 µM
TGI (MOLT-4 leukemia): 68.5 µM
TGI (SF-268 CNS): > 100 µM
TGI (SK-MEL-2 melanoma): > 100 µM

CC(=O)N/C(=C\c1ccccc1/C=C(\NC(C)=O)c1nc2cc(C)c(C)cc2[nH]1)c1nc2cc(C)c(C)cc2[nH]1
TGI (786-0 renal): 46.6 µM
TGI (A549 NSCLC): > 100 µM
TGI (DMS 273 small cell lung): 47.6 µM
TGI (KM20L2 colon): > 100 µM
TGI (LXFL 529 NSCLC): 30.8 µM
TGI (MOLT-4 leukemia): 97.4 µM
TGI (SF-268 CNS): > 100 µM
TGI (SK-MEL-2 melanoma): 53.9 µM

O=C1C=C(c2c(O)ccc3ccccc23)c2cc(O)ccc2C1=O
TGI (786-0 renal): 33.9 µM
TGI (A549 NSCLC): 36.7 µM
TGI (DMS 273 small cell lung): 30.8 µM
TGI (KM20L2 colon): 38.7 µM
TGI (LXFL 529 NSCLC): 19.5 µM
TGI (MOLT-4 leukemia): 8.67 µM
TGI (SF-268 CNS): 32.6 µM
TGI (SK-MEL-2 melanoma): 36.8 µM

CC1=C(C(=O)Nc2ccccc2)C(c2ccc(Cl)c(Cl)c2)C(C(=O)Nc2ccccc2)=C(C)N1
TGI (786-0 renal): 25.7 µM
TGI (A549 NSCLC): 25.3 µM
TGI (DMS 273 small cell lung): 27.5 µM
TGI (KM20L2 colon): 29.8 µM
TGI (LXFL 529 NSCLC): 25.6 µM
TGI (MOLT-4 leukemia): 3.04 µM
TGI (SF-268 CNS): 24.9 µM

CCCN(CCC)c1c([N+](=O)[O-])cc(C(=O)N(CC)CC)cc1[N+](=O)[O-]
TGI (786-0 renal): > 100 µM
TGI (A549 NSCLC): 38.1 µM
TGI (DMS 273 small cell lung): 43.7 µM
TGI (KM20L2 colon): 53.1 µM
TGI (LXFL 529 NSCLC): 63.7 µM
TGI (MOLT-4 leukemia): 50 µM
TGI (SF-268 CNS): > 100 µM
TGI (SK-MEL-2 melanoma): 43.5 µM

COc1ccc(/C=C\c2cc(OC)c(OC)c(OC)c2)cc1OCC(=O)O
TGI (786-0 renal): > 100 µM
TGI (A549 NSCLC): > 100 µM
TGI (DMS 273 small cell lung): 75.1 µM
TGI (DU-145 prostate): 47.2 µM
TGI (KM20L2 colon): > 100 µM
TGI (LXFL 529 NSCLC): > 100 µM
TGI (MOLT-4 leukemia): > 100 µM
TGI (NCI/ADR-RES ovarian): 5.39 µM
TGI (SF-268 CNS): > 100 µM
TGI (SK-MEL-2 melanoma): > 53.9 µM

CCOc1ccc(OCC(=O)O)c2c1CCCC2=O
TGI (786-0 renal): > 100 µM
TGI (A549 NSCLC): > 100 µM
TGI (DMS 273 small cell lung): > 100 µM
TGI (LXFL 529 NSCLC): > 100 µM
TGI (MOLT-4 leukemia): > 100 µM
TGI (SF-268 CNS): > 100 µM
TGI (SK-MEL-2 melanoma): > 100 µM

O=Cc1cc2c(cc1-c1cc3c(cc1C=O)OCO3)OCO2
TGI (786-0 renal): > 100 µM
TGI (A549 NSCLC): > 100 µM
TGI (DMS 273 small cell lung): > 100 µM
TGI (KM20L2 colon): > 100 µM
TGI (LXFL 529 NSCLC): > 100 µM
TGI (MOLT-4 leukemia): > 100 µM
TGI (SF-268 CNS): > 100 µM
TGI (SK-MEL-2 melanoma): > 100 µM

O=c1[nH]c(=O)n(C2CC(O)C(CO)O2)cc1OS(=O)(=O)C(F)(F)F (stereo not drawn)
TGI (786-0 renal): > 100 µM
TGI (A549 NSCLC): > 100 µM
TGI (DMS 273 small cell lung): > 100 µM
TGI (KM20L2 colon): > 100 µM
TGI (LXFL 529 NSCLC): > 100 µM
TGI (MOLT-4 leukemia): > 100 µM
TGI (SF-268 CNS): > 100 µM
TGI (SK-MEL-2 melanoma): > 100 µM

COc1cc(OC)c(OC)cc1/C=N/NC(=O)N/N=C/c1cc(OC)c(OC)cc1OC
TGI (786-0 renal): > 100 µM
TGI (A549 NSCLC): > 100 µM
TGI (DMS 273 small cell lung): > 100 µM
TGI (KM20L2 colon): > 100 µM
TGI (LXFL 529 NSCLC): > 100 µM
TGI (MOLT-4 leukemia): > 100 µM
TGI (SF-268 CNS): > 100 µM
TGI (SK-MEL-2 melanoma): > 100 µM

c1ccc2c(c1)CCc1c(-c3ccncc3)n[nH]c1-2
TGI (786-0 renal): > 100 µM
TGI (A549 NSCLC): > 100 µM
TGI (DMS 273 small cell lung): 52.1 µM
TGI (KM20L2 colon): 45.9 µM
TGI (LXFL 529 NSCLC): 66.2 µM
TGI (MOLT-4 leukemia): 85.4 µM
TGI (SF-268 CNS): > 100 µM
TGI (SK-MEL-2 melanoma): 38.4 µM

Cc1cc2c(cc1C)[n+](=O)cc(C(=O)C/C(=N/NC(=S)NN)C(=O)Nc1cccc(C(F)(F)F)c1)n2[O-]
TGI (786-0 renal): > 100 µM
TGI (A549 NSCLC): > 100 µM
TGI (DMS 273 small cell lung): > 100 µM
TGI (LXFL 529 NSCLC): > 100 µM
TGI (MOLT-4 leukemia): > 100 µM
TGI (SF-268 CNS): > 100 µM
TGI (SK-MEL-2 melanoma): > 100 µM

COCOCCC#CCO
TGI (786-0 renal): > 100 µM
TGI (A549 NSCLC): > 100 µM
TGI (KM20L2 colon): > 100 µM
TGI (LXFL 529 NSCLC): > 100 µM
TGI (MOLT-4 leukemia): > 100 µM
TGI (SF-268 CNS): > 100 µM
TGI (SK-MEL-2 melanoma): > 100 µM

Cc1nc2c(N)ncnc2o1
TGI (786-0 renal): > 100 µM
TGI (A549 NSCLC): > 100 µM
TGI (DMS 273 small cell lung): > 100 µM
TGI (KM20L2 colon): > 100 µM
TGI (LXFL 529 NSCLC): > 100 µM
TGI (MOLT-4 leukemia): > 100 µM
TGI (SF-268 CNS): > 100 µM
TGI (SK-MEL-2 melanoma): > 100 µM

CC(C)=CCC1=C(O)c2ccccc2C(=O)C1=O
GI50 (786-0 renal): > 100 µM and 21.6 µM and 26.1 µM
TGI (786-0 renal): > 100 µM
GI50 (A549 NSCLC): > 100 µM and 17.3 µM and 16.6 µM
TGI (A549 NSCLC): > 100 µM
GI50 (DMS 273 small cell lung): 37.8 µM and 9.15 µM
TGI (DMS 273 small cell lung): > 100 µM
GI50 (DU-145 prostate): 23.5 µM
TGI (DU-145 prostate): > 100 µM
GI50 (KM20L2 colon): > 100 µM and 48.9 µM
TGI (KM20L2 colon): > 100 µM
GI50 (LXFL 529 NSCLC): > 100 µM and 16.2 µM
TGI (LXFL 529 NSCLC): > 100 µM
GI50 (NCI/ADR-RES ovarian): 12.4 µM
TGI (NCI/ADR-RES ovarian): > 100 µM
GI50 (SF-268 CNS): > 100 µM and 11.8 µM
TGI (SF-268 CNS): > 100 µM
GI50 (SK-MEL-2 melanoma): 68.7 µM
TGI (SK-MEL-2 melanoma): > 88.3 µM

C/C(=N\NC(N)=O)c1sc(-c2nc(C)c(/C(C)=N/NC(N)=O)s2)nc1C
TGI (786-0 renal): > 100 µM
TGI (A549 NSCLC): > 100 µM
TGI (DMS 273 small cell lung): 49.6 µM
TGI (KM20L2 colon): > 100 µM
TGI (LXFL 529 NSCLC): > 100 µM
TGI (MOLT-4 leukemia): > 100 µM
TGI (SF-268 CNS): > 100 µM
TGI (SK-MEL-2 melanoma): > 100 µM

O=C1C=C(Nc2ccc(Cl)cc2C(=O)c2ccccc2)c2ccccc2C1=O
TGI (786-0 renal): > 100 µM
TGI (A549 NSCLC): > 100 µM
TGI (DMS 273 small cell lung): > 100 µM
TGI (KM20L2 colon): > 100 µM
TGI (LXFL 529 NSCLC): > 100 µM
TGI (MOLT-4 leukemia): > 100 µM
TGI (SF-268 CNS): > 100 µM
TGI (SK-MEL-2 melanoma): > 100 µM
